From US4900672A, “Method for preservation of nitrile hydration activity” (Nitto Kagaku Kogyo Kabushiki Kaisha, priority 1986, dated 1990)
Like-named read-outs stand apart in the source and are kept apart here.

Target: T1, nitrile hydratase (Pseudomonas chlororaphis, UniProt P27763+P27764)
T1 sequence (P27764 1-200): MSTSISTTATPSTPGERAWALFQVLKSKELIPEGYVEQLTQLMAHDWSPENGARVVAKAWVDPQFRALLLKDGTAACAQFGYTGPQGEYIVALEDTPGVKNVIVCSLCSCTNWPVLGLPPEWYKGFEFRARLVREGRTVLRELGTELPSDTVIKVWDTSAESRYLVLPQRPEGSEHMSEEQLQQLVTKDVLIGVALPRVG
T1 sequence (P27763 1-220): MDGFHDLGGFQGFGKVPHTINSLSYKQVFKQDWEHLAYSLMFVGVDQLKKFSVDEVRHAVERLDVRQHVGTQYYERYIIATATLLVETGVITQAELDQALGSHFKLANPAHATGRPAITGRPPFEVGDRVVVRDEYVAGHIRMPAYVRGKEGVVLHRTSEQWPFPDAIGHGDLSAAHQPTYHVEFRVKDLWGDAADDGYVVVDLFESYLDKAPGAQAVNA
Experiment: Preservation of nitrile hydration activity of washed cell suspension left standing ice-cooled with stabilizer
Type: cell-based, Pseudomonas chlororaphis B23 (FERM BP-187)

[1] = 120 h; Table 1; 10 mg nitrile in 5 ml cell suspension, pH 6.5, left standing 5 days ice-cooled; no stabilizer: 42; read-out: % Residual Activity
[2] = 120 h, pH 6, read-out: % Residual Activity
[3] = pH 6, read-out: % Residual Activity
[4] = 120 h; Table 2; 10 mg amide in 5 ml cell suspension, pH 6.5, left standing 5 days ice-cooled; no stabilizer: 42; read-out: % Residual Activity
[5] = 120 h; Table 3; 10 mg organic acid in 5 ml cell suspension, pH 6.0, left standing 5 days ice-cooled; no stabilizer: 43; read-out: % Residual Activity

Q: With N#CCC(N)=O [Cyanoacetamide] as the molecule, how does the activity at 10 mg [1] read?
A: 75%

Q: With CC(C)C(=O)O [Isobutyric acid] as the molecule, how does the activity at 25 mg (96 h, pH 5, read-out: % Residual Activity) read?
A: 1%

Q: And the activity at 25 mg (96 h, pH 5.5, read-out: % Residual Activity)?
A: 100%

Q: What about the activity at 25 mg (96 h, pH 6, read-out: % Residual Activity) of the same molecule?
A: 100%

Q: And the activity at 25 mg (96 h, pH 6.5, read-out: % Residual Activity)?
A: 88%

Q: What about the activity at 25 mg (96 h, pH 7, read-out: % Residual Activity) of the same molecule?
A: 78%

Q: And the activity at 25 mg (96 h, pH 8, read-out: % Residual Activity)?
A: 49%

Q: What about the activity at 10 mg [2] of the same molecule?
A: 97%

Q: And the remaining activity at 100 µg/mL [3]?
A: 83%

Q: What about the remaining activity at 1000 µg/mL [3] of the same molecule?
A: 100%

Q: And the remaining activity at 5000 µg/mL [3]?
A: 97%

Q: And the remaining activity at 20000 µg/mL [3]?
A: 95%

Q: And the remaining activity at 50000 µg/mL [3]?
A: 87%

Q: What about the remaining activity at 10 µg/mL (read-out: % Residual Activity) of the same molecule?
A: 80%

Q: How did the activity at 10 mg [4] turn out when NC(=O)CCO [β-Hydroxypropionamide] was run?
A: 74%

Q: CCCCCC(=O)O [Caproic acid] was tested. Which activity at 10 mg [5] did it give?
A: 83%

Q: With CCC(N)=O [Propionamide] as the molecule, how does the activity at 10 mg [4] read?
A: 93%

Q: Which activity at 10 mg [4] does the source give for NCC(N)=O [Glycine amide] here?
A: 63%

Q: Which activity at 10 mg [2] does the source give for O=C(O)CCC(=O)O [Succinic acid] here?
A: 80%

Q: Which activity at 10 mg [5] does the source give for C=C(C)C(=O)O [Methacrylic acid] here?
A: 81%

Q: N#CCCl [Chloroacetonitrile] was tested. Which activity at 10 mg [1] did it give?
A: 77%

Q: How did the activity at 10 mg (120 h, pH 6.5; read-out: % Residual Activity) turn out when N#CCC#N [Malononitrile] was run?
A: 69%

Q: For O=C(O)CC(=O)C(=O)O [Oxalacetic acid], which activity at 10 mg [5] is on record?
A: 83%

Q: For O=CC(=O)O [Glyoxylic acid], which activity at 10 mg [5] is on record?
A: 88%

Q: How did the activity at 10 mg [1] turn out when N#Cc1cccnc1 [Nicotinonitrile] was run?
A: 73%

Q: CCCCCC(N)=O [n-Capronamide] was tested. Which activity at 10 mg [4] did it give?
A: 88%

Q: For O=C(O)C(O)CO (racemic) [DL-Glyceric acid], which activity at 10 mg [5] is on record?
A: 87%

Q: For CCCCC#N [n-Valeronitrile], which activity at 10 mg [1] is on record?
A: 93%

Q: With N#CCN [Glycine nitrile] as the molecule, how does the activity at 10 mg [1] read?
A: 68%

Q: With N#CCCO [β-Hydroxypropionitrile] as the molecule, how does the activity at 10 mg [1] read?
A: 84%

Q: Which activity at 10 mg [1] does the source give for C=C(C)C#N [Methacrylonitrile] here?
A: 80%

Q: O=C(O)CC(O)C(=O)O (stereo not drawn) [Malic acid] was tested. Which activity at 10 mg [5] did it give?
A: 81%

Q: For O=C(O)CCl [Monochloroacetic acid], which activity at 10 mg [5] is on record?
A: 70%

Q: How did the activity at 10 mg [4] turn out when C=C(C)C(N)=O [Methacrylamide] was run?
A: 79%

Q: For O=C(O)CO [Glycolic acid], which activity at 10 mg [5] is on record?
A: 77%

Q: For CCCCC(N)=O [n-Valeramide], which activity at 10 mg [4] is on record?
A: 94%

Q: Which activity at 10 mg [4] does the source give for NCCC(N)=O [β-Aminopropionamide] here?
A: 68%

Q: Which activity at 10 mg (120 h, pH 6.5, read-out: % Residual Activity) does the source give for NC(=O)CCl [Chloroacetamide] here?
A: 71%

Q: Which activity at 10 mg [4] does the source give for CC(N)=O [Acetamide] here?
A: 67%

Q: With CCCCCC#N [n-Capronitrile] as the molecule, how does the activity at 10 mg [1] read?
A: 89%

Q: For O=C(O)CC(=O)O [Malonic acid], which activity at 10 mg [5] is on record?
A: 63%

Q: How did the activity at 10 mg [2] turn out when O=C(O)/C=C/C(=O)O [Fumaric acid] was run?
A: 82%
